This is an account of results in patent publication US7754685B2, “Methods and pharmaceutical compositions for the treatment and prevention of hepatitis C infection” (Scynexis, Inc., priority 2005, dated 2010).

pEC50, pIC50: −log10 of the molar value. Where two headings read alike, the source gives them in different places.

In one data set the test system is HCV. Particulars: interferon as single agent or with ribavirin; cited from earlier work.
For data set [1], the system named is HCV RNA replicon ET. In words: HCV RNA replicon assay in ET cell line, luciferase (LUC) endpoint, antiviral activity. The data set is classed as cell-based. Particulars: Hepatitis C virus; Example 6 (2′-C-methyl-cytidine combination experiment), single compound; read-out: EC50 of compound alone. As to the method: The compounds of the present invention were tested for activity against HCV using the methods adapted from those described by Kriger et al., 2001, Journal of Virology, 75:4614-4624, Pietschmann et al., 2002, Journal of Virology 76:4008-4021, and using HCV RNA constructs as described in U.S. Pat. No. 6,630,343. The contents of these references are hereby incorporated by reference in their entireties.
Compounds were examined in the human hepatoma cell line ET (lub ubi neo/ET), a HCV RNA replicon containing a stable luciferase (LUC) reporter. The HCV RNA replicon ET contains the 5′ end of HCV (with the HCV Internal Ribosome Entry Site (IRES) and the first few amino acids of the HCV core protein) which drives the production of a firefly luciferase (LUC), ubiquitin, and neomycin phosphotransferase (NeoR) fusion protein. Ubiquitin cleavage releases the LUC and NeoR proteins. The EMCV IRES element controls the translation of the HCV, […] NS3-NS5. The NS3 protein cleaves the HCV polyprotein to release the mature NS3, NS4A, NS4B, NS5A and NS5B proteins that are required for HCV replication. At the 3′ end of the replicon is the authentic 3′ NTR of HCV.
Cyclosporine A was also tested.
For orientation: A replicon is a self-replicating genome or part of one, used to study replication in cells.

Data set [2] deals with human hepatoma cell line ET. The settings on record: for IC90: read-out: Cytotoxicity IC90.
Experimental: The compounds were dissolved in DMSO at five half-log concentrations each, ranging from either 0.02 to 2.0 μM, 0.03 to 3 μM, 2.0 to 20 μM, or 1 to 100 μM. Subconfluent cultures of the ET line were plated out into 96 well plates dedicated for the analysis of cell numbers (cytotoxicity) or antiviral activity and the next day the compounds were added to the appropriate wells. The cells were processed 72 h later when the cells were still subconfluent. […] Cytotoxicity was expressed as IC50 and IC90, the concentration of compound that inhibited cell viability by 50% and 90%, respectively. Compound IC50 and IC90 values were calculated using a colorimetric assay as an indication of cell numbers and cytotoxicity. […] Cyclosporine was also tested by way of comparison.
For single-compound assays, the compounds were dissolved in DMSO at five half-log concentrations each, ranging from either 0.02 to 2 μM or 0.2 to 20 μM. Compound EC50 and EC90 values, as well as IC50 and IC90 values, were determined according to Example 2. […] Cyclosporine A was also tested.
The subject of data set [3] is HCV RNA replicon ET. The data set is described as follows: HCV RNA replicon drug-drug combination (checkerboard, MacSynergy II) antiviral synergy. The data set is classed as cell-based. As to the method: Compounds and combinations were evaluated in the HCV replicon assay described in Example 2 with changes indicated below.
(§1) The HCV RNA replicon antiviral evaluation assay was utilized to examine the efficacy and cytotoxicity of two compounds (e.g., Drug 1 and Drug 2) in combinations of five versus nine half-log concentrations. The assay was performed using a microtiter plate format for allocation of media, drug, cells, and virus. […] Cells were processed 72 hr later when the cells were still sub-confluent. […] The cytotoxicity was evaluated as the concentration of the drug that reduced cell numbers as described in Example 2.
Compounds of this invention were tested as “Drug 2” at nine concentrations between 0.0078 to 2.0 μM. Interferon-alpha (Sigma) was tested as Drug 1 at 0.005 to 0.5 international units per mL (IU/mL). The data obtained from these checkerboard assays were analyzed with the MacSynergy II (v2.01) (Prichard & Shipman, 1990, Antiviral Res. 14:181-205) and Delta Graph (v1.5d) programs. Each data point used to create three-dimensional plots (FIGS. 1A-1C) was derived from the result of triplicate samples. The statistical relevance of the data was analyzed and plotted at one of three confidence levels (68%, 95% or 99%) to display combinatorial results as additive, synergistic or antagonistic.
Effects of the drug combinations were calculated based on the activity of each compound when tested alone. The expected additive antiviral protection was subtracted from the experimentally determined antiviral activity at each combination concentration resulting in a positive value (synergy), a negative value (antagonism) or zero (additive). […] Slightly synergistic activity and highly synergistic activity have been operationally defined as yielding synergy volumes of 50-100 and >100, respectively.
(§2) Compounds and combinations were evaluated in the HCV replicon assay described in Example 5 with changes noted below.
as §2
(§3) Effects of the drug combinations were calculated based on the activity of each compound when tested alone. The expected additive antiviral protection was subtracted from the experimentally determined antiviral activity at each combination concentration resulting in a positive value (synergy), a negative value (antagonism), or zero (additivity). The results of the combination assays are presented three dimensionally at each combination concentration, yielding a surface of activity extending above (synergy) or below (antagonism) the plane of additivity. The volume of the surface is calculated and expressed as a synergy volume (in units of concentration times concentration times percent; e.g. μM2%, nM2%, nMμM %, etc.) calculated at the 95% confidence interval.

The test system of data set [4] is human hepatoma cell line ET. In words: HCV RNA replicon drug-drug combination, cytotoxicity volume. Particulars: in combination with Compound 3; FIG. 3B. The method, then: as §1, §2, §3
Data set [5] concerns Madin-Darby bovine kidney (MDBK) cells. The data set is described as follows: BVDV drug-drug combination assay, cytotoxicity to target cells. The settings on record: in combination with IFN-α. Format: cell-based. The method, then:
Phenazine methosulfate (PMS) solution was prepared at 0.15 mg/mL in PBS and stored in the dark at −20° C. XTT/PMS stock was prepared immediately before use by adding 40 μL of PMS per ml of XTT solution. Fifty microliters of XTT/PMS was added to each well of the plate and the plate was reincubated for 4 hours at 37° C. Plates were sealed with adhesive plate sealers and shaken gently or inverted several times to mix the soluble formazan product and the plate was read spectrophotometrically at 450/650 nm with a Molecular Devices Vmax plate reader.

Data set [6] has as its system Bovine Viral Diarrhea Virus (BVDV), NADL strain. In words: BVDV cytopathic effect drug-drug combination assay in MDBK cells (XTT), antiviral. Particulars: in combination with IFN-α. The data set is classed as cell-based.
Setting [7] is: read-out: Cytotoxicity IC50, Example 2, ET cells, 72 h, colorimetric assay.
The mark [8] stands for this setting: Example 2, ET cells, 72 h, colorimetric assay.
Where [9] appears, read: read-out: IC50 of compound alone (cytotoxicity), Example 5 (IFNα combination experiment), single compound.
Setting [10] is: in combination with 2′-C-methyl-cytidine, 95% confidence interval.
The mark [11] stands for this setting: in combination with IFNα, 95% confidence interval.

Turning to interferon, the “share of the subject population in which the virus is eradicated” value in the data set on HCV is recorded as 33-46%.

On to `C[C@@]1(O)[C@H](O)[C@@H](CO)O[C@H]1n1ccc(N)nc1=O` [2′-C-methyl-cytidine, reference compound], for which, in the data set on HCV RNA replicon ET [1], the pEC50 (in general, the EC50 on a negative log10 scale, so that one unit is a factor of ten) is 6.12.

As to `CC=CCC(C)C(O)C1C(=O)NC(CC)C(=O)N(C)C(SCCN(C)C)C(=O)N(C)C(CC(C)(C)O)C(=O)NC(C(C)C)C(=O)N(C)C(CC(C)C)C(=O)NC(C)C(=O)NC(C)C(=O)N(C)C(CC(C)C)C(=O)N(C)C(CC(C)C)C(=O)N(C)C(C(C)C)C(=O)N1C` [Compound O, 3-[(R)-2-(N,N-dimethylamino)ethylthio-Sar]-4-(gamma-hydroxymethylleucine)cyclosporin], the pIC50 (commonly −log10 of the IC50, conventionally taken in molar units) in data set [2] (setting [7]) was 4.87; in data set [2] (setting [9]), below 5.70; in data set [2] (read-out: IC50 of compound alone (cytotoxicity), Example 6, single compound) it was below 5.70. The IC90 (usually the point of the concentration-response curve where the effect stands at 90%) in data set [2] (setting [8]) was above 20000 nM. Besides, the antiviral synergy volume with HCV RNA replicon ET [3] (setting [10]) was 228 μM^2%; with HCV RNA replicon ET [3] (setting [11]) it was 122 IU/mLμM %. For the same compound, the “drug interaction (antiviral) of the combination” value with HCV RNA replicon ET [3] (setting [10]) is “highly synergistic (Slightly synergistic activity and highly synergistic activity have been operationally defined as yielding synergy volumes of 50-100 and >100, respectively)”; in the data set with HCV RNA replicon ET [3] (in combination with Compound 3 (HCV NS3-4A protease inhibitor), FIG. 3A) it was “additive or mildly synergistic”; with HCV RNA replicon ET [3] (setting [11]) it was “highly synergistic (Slightly synergistic activity and highly synergistic activity have been operationally defined as yielding synergy volumes of 50-100 and >100, respectively)”. Also, the “cytotoxicity interaction of the combination” value in data set [4] is “antagonistic cytotoxicity”; in data set [5], “Antagonistic cytotoxicity”.

On to `CC=CCC(C)C(O)C1C(=O)NC(CC)C(=O)N(C)C(OCCN(C)C)C(=O)N(C)C(CC(C)C)C(=O)NC(C(C)C)C(=O)N(C)C(CC(C)C)C(=O)NC(C)C(=O)NC(C)C(=O)N(C)C(CC(C)C)C(=O)N(C)C(CC(C)C)C(=O)N(C)C(C(C)C)C(=O)N1C` (stereo not shown) [C, 3-(2-N,N-dimethylaminoethoxy)cyclosporin], for which the “drug interaction, anti-BVDV” value in data set [6] is on record as “Additive”. Besides, the “cytotoxicity interaction of the combination” value in data set [5] is “Antagonistic cytotoxicity”.

Consider `CC=CCC(C)C(O)C1C(=O)NC(CC)C(=O)N(C)C(OC)C(=O)N(C)C(CC(C)(C)O)C(=O)NC(C(C)C)C(=O)N(C)C(CC(C)C)C(=O)NC(C)C(=O)NC(C)C(=O)N(C)C(CC(C)C)C(=O)N(C)C(CC(C)C)C(=O)N(C)C(C(C)C)C(=O)N1C` (stereo not shown) [Compound T, 3-(methoxy)-4-(gamma-hydroxymethylleucine)cyclosporin], for which the pIC50 in data set [2] (setting [7]) and in data set [2] (setting [9]) was below 5.70 each time. The IC90 in data set [2] (setting [8]) is above 2000 nM. For the same compound, the antiviral synergy volume in the data set on HCV RNA replicon ET [3] (setting [11]) came to 6 IU/mLμM %.
